TGI data for 25 compounds are collected here from PubChem BioAssay (NCI).

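Results reflect a 48-hour exposure of cells in 96-well plates to compound at five concentrations. TGI is the concentration that stops growth completely.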

Holding throughout (experiment): inhibition of tumour cell growth, NCI panel, 48 h
The test system of experiment [1] is MOLT-4 leukemia.
Experiment [2] relates to EKVX NSCLC.
Experiment [3] deals with IGROV1 ovarian.
Experiment [4] deals with SW-620 colon.
The test system of experiment [5] is SK-MEL-2 melanoma.
Experiment [6] relates to SK-MEL-5 melanoma.
For experiment [7], the system named is UACC-62 melanoma.
The subject of experiment [8] is ACHN renal.
For experiment [9], the system named is MCF7 breast.
Experiment [10] deals with T-47D breast.
For experiment [11], the system named is RPMI-8226 leukemia.
The test system of experiment [12] is SNB-75 CNS.
Experiment [13] deals with HOP-92 NSCLC.

On to `CC1(Cc2cc3c(cc2C2(c4ccc([N+](=O)[O-])cc4)OCCO2)OCO3)OCCO1`, for which the TGI in [1], in experiment [2], in experiment [3], in experiment [4], in experiment [5] and in experiment [6] was above 100 µM each time. Moreover, the TGI in [7] is above 100 µM; in [8], above 100 µM; in experiment [9] it was above 100 µM; in experiment [10], above 100 µM; in [11] it was 78.4 µM.
As to `O=[N+]([O-])c1cc2ccc1OCc1cccc(n1)COc1ccc(cc1[N+](=O)[O-])C=NCCCCCCCCN=C2`, the TGI in experiment [1], in experiment [2], in experiment [12], in experiment [3], in experiment [4] and in [5] was above 100 µM in each case. In addition, the TGI in [6], in experiment [7], in experiment [13], in experiment [8], in experiment [9] and in [11] was above 100 µM throughout.
`C=CC[C@@]12CCC(=O)C=C1CCCC2=O`: the TGI in [1], in [2], in [3], in [4], in experiment [5] and in experiment [6] was above 100 µM each time. The TGI in experiment [7], in [13], in experiment [8], in [9], in [10] and in experiment [11] was above 100 µM each time.
As for `COc1cccc(N2C(=O)C3c4[nH]c5ccc(C)cc5c4C4CCC(C)CC4C3C2=O)c1` (configuration not stated), the TGI in [2], in [3], in experiment [4], in [5], in experiment [6] and in experiment [7] was above 100 µM in each case. In addition, the TGI in experiment [13], in experiment [8], in experiment [9] and in experiment [11] was above 100 µM each time.
Regarding `CC(C)(C)OC(=O)NC(Cc1ccc(OCc2ccccc2)cn1)C(=O)O` (configuration not stated), the TGI in [2], in experiment [3], in [4], in experiment [6], in experiment [13] and in experiment [8] was above 100 µM each time. Moreover, the TGI in experiment [9] and in experiment [11] was above 100 µM each time.
Take `CC(=O)c1sc2n(C)c(=O)c3ccccc3[n+]2c1C`: the TGI in experiment [1], in experiment [2], in experiment [3], in [4], in experiment [5] and in experiment [6] was above 100 µM each time. Further, the TGI in [7], in experiment [13], in experiment [8], in experiment [9], in experiment [10] and in [11] was above 100 µM throughout.
Take `Cn1nc(S(N)(=O)=O)s/c1=N/S(=O)(=O)c1ccc(N)cc1`: the TGI in experiment [1], in experiment [2], in experiment [12], in experiment [4], in experiment [5] and in experiment [7] was above 100 µM throughout. Further, the TGI in experiment [13], in experiment [8] and in experiment [11] was above 100 µM in each case.
As to `CC(=O)OC1CC2C(C)(C)OC(=O)CC(OC(C)=O)[C@]2(C)C2CCC3(C)C(=CCC3c3ccoc3)[C@]12C` (some centres not stated), the TGI was 52 µM in experiment [1]; above 100 µM in [2]; 83.5 µM in experiment [12]; 82.8 µM in [3]; above 100 µM in [4]; 25.1 µM in experiment [5]. The TGI is above 100 µM in experiment [6]; above 100 µM in experiment [7]; 29.9 µM in experiment [13]; above 100 µM in experiment [8]; above 100 µM in [11].
Regarding `COC(=O)/C=C/c1ccc2c(c1)[C@H](C(=O)OC)[C@@H](c1ccc(O)cc1)O2`, the TGI in experiment [1] was 96.5 µM; in [2], above 100 µM; in experiment [3], above 100 µM; in experiment [4], above 100 µM; in experiment [5] it was 31.2 µM; in experiment [6], 28.1 µM. The TGI in experiment [7] is above 100 µM; in experiment [13], above 100 µM; in experiment [8], above 100 µM; in [9], 48.6 µM; in experiment [10], above 100 µM.
For the compound `CC(=O)c1c2c(cc3c1CC1(C3)Cc3cc4c(c(C(C)=O)c3C1)CCCC4)CCCC2`, the TGI in experiment [1] was 76.5 µM; in experiment [2], above 100 µM; in [3], above 100 µM; in experiment [5], 83.2 µM; in [6], 35.4 µM; in experiment [7], above 100 µM. The TGI in experiment [13], in experiment [8], in experiment [9], in experiment [10] and in experiment [11] was above 100 µM each time.
For `O=c1[nH]cc(COCC(O)CO)c(=O)[nH]1` (configuration not stated), the TGI in experiment [1], in experiment [2], in experiment [12], in [3], in experiment [4] and in experiment [5] was above 100 µM in each case. Besides, the TGI in experiment [6], in [7], in experiment [13], in [8] and in experiment [11] was above 100 µM in each case.
As to `CC1CN=C(NS(=O)(=O)c2cc(C(=O)Nc3ccccc3)c(Cl)cc2S)NN1` (configuration not stated), the TGI was above 100 µM in experiment [1]; above 100 µM in experiment [2]; 83.3 µM in experiment [3]; above 100 µM in experiment [4]; 71.6 µM in [5]; above 100 µM in [6]. In addition, the TGI in experiment [7], in [8], in experiment [9] and in experiment [11] was above 100 µM throughout.
In the case of `O=C1COc2cc3c(cc2N1)SCCC(=O)N3`, the TGI in experiment [1], in [2], in experiment [12], in [3], in experiment [4] and in [5] was above 100 µM each time. Also, the TGI in experiment [6], in experiment [7], in [13] and in [11] was above 100 µM in each case.
Consider `COCCNC1CCC(=O)c2[nH]c3ccccc3c21` (configuration not stated), for which the TGI in experiment [1], in [2], in experiment [12], in experiment [3], in experiment [4] and in experiment [5] was above 100 µM each time. Moreover, the TGI in experiment [6], in experiment [13], in [8], in experiment [9] and in experiment [11] was above 100 µM in each case.
Take `CC[C@H]1C=CCC[C@@]2(C[C@@H]3CC[C@H]4[C@@H](C(=O)OCCCCCCCCCCCCCCCC(=O)N(CCCNC(C)=O)C[C@H](CCNC(C)=O)OC(C)=O)[C@@]5(CCC[C@@H](C)O5)NC(=[N+]34)N2)O1`: the TGI came to 2.99 µM in experiment [1]; 2.09 µM in experiment [2]; 2.66 µM in [3]; 3.25 µM in [4]; 3.31 µM in experiment [5]; 2.57 µM in [6]. The TGI is 3.52 µM in experiment [7]; 2.43 µM in experiment [13]; 3.3 µM in [8]; 2.98 µM in experiment [9]; 0.554 µM in [11].
Turning to `COC(=O)C1Cc2c([nH]c3ccccc23)-c2[nH]c3ccccc3c2CC(NC(C)=O)C(=O)NCC(=O)NCC(=O)N1` (configuration not stated), the TGI in [1], in experiment [2], in experiment [12], in experiment [3], in experiment [4] and in experiment [5] was above 100 µM each time. Besides, the TGI in [6], in experiment [7], in experiment [13], in experiment [8], in experiment [10] and in [11] was above 100 µM in each case.
`CN1C(=O)C(C#N)C2C[C@@]1(C)Oc1ccccc12` (some centres not stated): the TGI in experiment [1], in experiment [2], in [12], in experiment [3], in experiment [4] and in experiment [5] was above 100 µM in each case. Further, the TGI in experiment [6], in experiment [7], in [13], in [8], in experiment [9] and in [11] was above 100 µM each time.
For the compound `CC(C)(C)OC(=O)NC(Cc1ccc(OCc2ccccc2)cn1)C(N)=O` (configuration not stated), the TGI in experiment [2] was above 100 µM; in [12], above 100 µM; in experiment [3] it was above 100 µM; in experiment [4], above 100 µM; in experiment [6] it was 94.2 µM; in [13], above 100 µM. The TGI in experiment [8], in experiment [9] and in experiment [11] was above 100 µM in each case.
Take `C=C(C)CCN(C(=O)OC(C)(C)C)c1cc(C(C)C)co1`: the TGI was 98 µM in experiment [1]; above 100 µM in experiment [2]; above 100 µM in experiment [3]; above 100 µM in [4]; above 100 µM in [5]; above 100 µM in experiment [6]. In addition, the TGI in [7] was above 100 µM; in experiment [13], 61 µM; in experiment [8], above 100 µM; in [9] it was above 100 µM; in [10], above 100 µM; in [11] it was 57.3 µM.
With `COc1ccc(-c2cc(=O)c3ccc(F)cc3[nH]2)cc1`, the TGI in experiment [1], in experiment [2], in experiment [12], in experiment [3], in [4] and in experiment [6] was above 100 µM throughout. The TGI in [7], in experiment [13], in experiment [8] and in [11] was above 100 µM each time.
On to `Cc1ccc(/C=C2\CCCCCC2=O)cc1`, for which the TGI in experiment [1], in experiment [2], in [12], in experiment [3], in [4] and in [5] was above 100 µM throughout. The TGI in [6], in [7], in [13], in [8], in experiment [10] and in experiment [11] was above 100 µM each time.
As for `O=C(NN1C(=O)C(Cl)C1c1cccc(Cl)c1)c1ccccc1O` (configuration not stated), the TGI in experiment [1], in experiment [12], in experiment [3], in experiment [5], in [6] and in experiment [7] was above 100 µM throughout. In addition, in experiment [8], the TGI is above 100 µM.
Take `CN(C)c1cccc(/C=C(\C#N)c2ccccc2)c1`: the TGI in experiment [1] was above 21.1 µM; in experiment [2] it was above 100 µM; in experiment [12], 5.05 µM; in [3], above 72.5 µM; in [4], above 56 µM; in [5], 47.5 µM. Besides, the TGI is 21 µM in [6]; above 100 µM in experiment [7]; 39.1 µM in experiment [13]; above 100 µM in experiment [8]; 86.5 µM in experiment [10]; above 42.8 µM in experiment [11].
Consider `C/C(=C(/C)c1cc[n+](C)cc1)c1cc[n+](C)cc1`, for which the TGI in experiment [1], in experiment [2], in experiment [12], in experiment [3], in experiment [5] and in experiment [6] was above 75 µM in each case. In addition, the TGI in experiment [7], in experiment [13], in [8] and in experiment [11] was above 75 µM in each case.
On to `CNC(=O)OCc1nc(N=[N+]=[N-])n(C)c1COC(=O)NC`, for which the TGI in [1] was 88.3 µM; in experiment [2], above 100 µM; in [12], above 100 µM; in experiment [3] it was above 100 µM; in [4] it was above 100 µM; in [5] it was 80.6 µM. The TGI is above 10 µM in [6]; 86.7 µM in experiment [13]; above 100 µM in [8]; above 100 µM in experiment [9]; above 100 µM in experiment [11].
